According to ChEMBL document CHEMBL6153037, “Developing dual-responsive quinolinium prodrugs of 8-hydroxyquinoline by harnessing the dual chelating sites” (Eur J Med Chem, 2025):
Active and inactive are the calls of the source. No cut-off for these calls is given here.

What was measured:
[1] = Prodrug conversion in PBS at pH 7.4 containing H2O2 assessed as PBAPE intermediate with exposed quinoline nitrogen by measuring retention time at 50 uM measured for 30 mins by HPLC analysis; format: ADME; settings: buffer, pH 7.4, 0.5 h
[2] = Prodrug conversion in PBS at pH 7.4 exposed to UV assessed as 8-HQ release by measuring retention time at 50 uM measured for 30 mins by HPLC analysis; format: ADME; settings: buffer, pH 7.4, 0.5 h
[3] = Prodrug conversion in PBS at pH 7.4 exposed to UV assessed as 8-Hydroxy-1-(4-(4,4,5,5-tetramethyl-1,3,2-dioxaborolan-2-yl)benzyl)quinolin-1-ium bromide metabolite formation by measuring retention time at 50 uM measured for 30 mins by HPLC analysis; format: ADME; settings: buffer, pH 7.4, 0.5 h
MDA-MB-231 [4] = assay: Cytotoxicity against human MDA-MB-231 cells incubated for 48 hrs in presence of UV by MTT assay; format: functional, cell-based
MDA-MB-231 [5] = assay: Cytotoxicity against human MDA-MB-231 cells incubated for 48 hrs in absence of UV by MTT assay; format: functional, cell-based
MCF-10A = assay: Cytotoxicity against human MCF-10A cells exposed to UV incubated for 48 hrs by MTT assay; format: toxicity, cell-based
MDA-MB-231 [6] = assay: Induction of apoptosis in human MDA-MB-231 cells assessed as viable cells incubated for 24 hrs in presence of UV by Annexin V-FITC/PI staining based flow cytometry (reference value: 92.06 %); format: functional
MDA-MB-231 [7] = assay: Induction of apoptosis in human MDA-MB-231 cells assessed as early apoptotic cells incubated for 24 hrs in presence of UV by Annexin V-FITC/PI staining based flow cytometry (reference value: 1.94 %); format: functional
MDA-MB-231 [8] = assay: Induction of apoptosis in human MDA-MB-231 cells assessed as late apoptotic cells incubated for 24 hrs in presence of UV by Annexin V-FITC/PI staining based flow cytometry (reference value: 2.4 %); format: functional
MDA-MB-231 [9] = assay: Induction of apoptosis in human MDA-MB-231 cells assessed as necrotic cells incubated for 24 hrs in presence of UV by Annexin V-FITC/PI staining based flow cytometry (reference value: 3.6 %); format: functional
MDA-MB-231 [10] = assay: Induction of apoptosis in human MDA-MB-231 cells assessed as viable cells incubated for 24 hrs by Annexin V-FITC/PI staining based flow cytometry (reference value: 92.06 %); format: functional
MDA-MB-231 [11] = assay: Induction of apoptosis in human MDA-MB-231 cells assessed as early apoptotic cells incubated for 24 hrs by Annexin V-FITC/PI staining based flow cytometry (reference value: 1.94 %); format: functional
MDA-MB-231 [12] = assay: Induction of apoptosis in human MDA-MB-231 cells assessed as late apoptotic cells incubated for 24 hrs by Annexin V-FITC/PI staining based flow cytometry (reference value: 2.4 %); format: functional
MDA-MB-231 [13] = assay: Induction of apoptosis in human MDA-MB-231 cells assessed as necrotic cells incubated for 24 hrs by Annexin V-FITC/PI staining based flow cytometry (reference value: 3.6 %); format: functional
MDA-MB-231 [14] = assay: Induction of cell cycle arrest in human MDA-MB-231 cells assessed as accumulation at G0/G1 phase by PI staining based flow cytometry (reference value: 43.25 %); format: functional
MDA-MB-231 [15] = assay: Induction of cell cycle arrest in human MDA-MB-231 cells assessed as accumulation at G0/G1 phase in presence of UV by PI staining based flow cytometry (reference value: 43.25 %); format: functional
MDA-MB-231 [16] = assay: Inhibition of mitochondrial membrane potential in human MDA-MB-231 cells incubated for 24 hrs by JC-1 dye based analysis (reference value: 5.51 %); format: functional
MDA-MB-231 [17] = assay: Inhibition of mitochondrial membrane potential in human MDA-MB-231 cells incubated for 24 hrs in presence of UV by JC-1 dye based analysis (reference value: 5.51 %); format: functional
[18] = Hepatorenal toxicity in ICR mouse assessed as change in ALT level at 30 mg/kg, iv measured after 48 hrs; format: organism-based; settings: in vivo
[19] = Hepatorenal toxicity in ICR mouse assessed as change in AST level at 30 mg/kg, iv measured after 48 hrs; format: organism-based; settings: in vivo
[20] = Hepatorenal toxicity in ICR mouse assessed as change in BUN level at 30 mg/kg, iv measured after 48 hrs; format: organism-based; settings: in vivo
[21] = Hepatorenal toxicity in ICR mouse assessed as change in serum creatinine level at 30 mg/kg, iv measured after 48 hrs; format: organism-based; settings: in vivo

`Br.CC1(C)OB(c2ccc(C[n+]3cccc4cccc(OCc5ccccc5[N+](=O)[O-])c43)cc2)OC1(C)C` showed a Retention_time [1] of 14.8 min, a Retention_time [2] of 3.6 min and a Retention_time [3] of 16.4 min. For the same compound, the Activity (MDA-MB-231 [4]) was “Dose-dependent-effect”, the Activity (MDA-MB-231 [5]) was “inactive” and the Activity (MCF-10A) was “Non-toxic”. The Activity (MDA-MB-231 [6]) was 52.82%, the Activity (MDA-MB-231 [7]) was 23.32% and the Activity (MDA-MB-231 [8]) was 19.66%. The Activity (MDA-MB-231 [9]) was 4.21%, the Activity (MDA-MB-231 [10]) was 80.18% and the Activity (MDA-MB-231 [11]) was 8.03%. The Activity (MDA-MB-231 [12]) was 10.76%, the Activity (MDA-MB-231 [13]) was 1.03% and the Activity (MDA-MB-231 [14]) was 45.12%. The Activity (MDA-MB-231 [15]) was 58.23%, the “inhibition (INH)” value (MDA-MB-231 [16]) was 15.85% and the “inhibition (INH)” value (MDA-MB-231 [17]) was 62.81%. For the same compound, the Activity [18] was “Non-toxic”, the Activity [19] was “Non-toxic” and the Activity [20] was “Non-toxic”. The Activity [21] was “Non-toxic”.
